In PMC7018972, “Novel and selective inactivators of Triosephosphate isomerase with anti-trematode activity” (Scientific Reports, 2020):

Target: Fasciola hepatica TIM (FhTIM) (Fasciola hepatica, UniProt S4UI50)
Experiment: Inhibition of recombinant FhTIM, coupled enzyme assay
Type: biochemical
Conditions: for IC50: Table 1S, screening of 340 compounds in FhTIM, table head prints no unit, µM per b8/b9, read-out: IC50
Method: Expression and purification of proteins: FhTIM, RabbitTIM and HsTIM were expressed in Escherichia coli and purified as described in the literature[31],[37]. […] Before use, extensive dialysis against 100 mM triethanolamine/10 mM EDTA (pH 7.4) was performed. […] Enzymatic activity was determined following the conversion of glyceraldehydes-3-phosphate into dihydroxyacetone phosphate in a coupled enzyme assay. The decrease in absorbance at 340 nm was followed in a multiplate reader VarioskanTM Flash Multimode Reader (Thermo ScientificTM, Waltham, MA, USA) at 38 °C. The reaction mixture (1 mL, pH 7.4) contained 100 mM triethanolamine, 10 mM EDTA, 0.2 mM NADH, 1 mM glyceraldehydes-3-phosphate and 0.9 units of α-glycerol phosphate dehydrogenase. The reaction was initiated by the addition of 5 ng/mL of the TIM of interest. For the inhibition studies, TIM was incubated at a concentration of 5 mg/mL in a buffer containing 100 mM triethanolamine, 10 mM EDTA, pH 7.4 and 10% of DMSO at 37 °C for 1 h. The mixture also contained the compounds, dissolved in DMSO, at the indicated concentrations. After 1 h, 10 µL were withdrawn and added to a final volume of 100 µL of the reaction mixture for the activity assay. The inhibition assay was performed in a 96-well microplate. […] The experiments were performed in triplicate in two independent experiments.

Fasciola hepatica TIM (FhTIM), sequence (S4UI50 entry or part of it): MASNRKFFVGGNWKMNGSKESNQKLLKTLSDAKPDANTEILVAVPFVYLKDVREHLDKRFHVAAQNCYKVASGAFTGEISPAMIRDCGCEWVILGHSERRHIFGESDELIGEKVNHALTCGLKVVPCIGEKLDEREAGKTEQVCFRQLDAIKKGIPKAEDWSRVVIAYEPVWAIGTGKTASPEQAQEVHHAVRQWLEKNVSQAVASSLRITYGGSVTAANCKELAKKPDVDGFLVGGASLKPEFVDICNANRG

Row | Compound | IC50 | FhTIM inhibition in words
1 | Nc1ccc2c(c1)[n+]([O-])c1cc(Cl)ccc1[n+]2[O-] [Compound 184] | > 100 µM | –
2 | Cc1ccc(-c2nsc(=O)[nH]2)cc1 [Compound 191] | > 100 µM | non-inhibitor
3 | COc1nn(CCOCCN2CCN(CC=Cc3ccccc3)CC2)c2ccc([N+](=O)[O-])cc12 [Compound 198] | > 100 µM | –
4 | CCCN(CCCCCn1nc(OCc2ccccc2)c2cc([N+](=O)[O-])ccc21)CCC(C)C1CC=C(C)CC1 (centres unmarked) [Compound 199] | > 100 µM | –
5 | N#Cc1c2ccccc2[n+]([O-])n1-c1ccc2ccccc2c1 [Compound 202] | > 100 µM | –
6 | Cc1nnc[n+]([O-])c1/C=C/c1ccc(Cl)cc1 [Compound 211] | > 100 µM | –
7 | Cc1nnc(C)[n+]([O-])c1C=Cc1ccc(N(C)C)cc1 [Compound 213] | > 100 µM | –
8 | Cc1c(C=Cc2ccc([N+](=O)[O-])s2)ncn[n+]1[O-] [Compound 214] | > 100 µM | –
9 | Cc1nnc[n+]([O-])c1C=Cc1ccc2c(c1)OCO2 [Compound 216] | > 100 µM | –
10 | COc1ccc(C=Cc2c(C)[n+]([O-])nc[n+]2[O-])cc1 [Compound 218] | > 100 µM | –
11 | Cc1c(C=Cc2ccc(N(C)C)cc2)[n+]([O-])cn[n+]1[O-] [Compound 219] | > 100 µM | –
12 | COc1ccc(C=O)cc1-c1cc(C=O)ccc1OC [Compound 237] | > 100 µM | –
13 | C=CCn1c(C)csc1=NN=CC=Cc1ccc([N+](=O)[O-])s1 [Compound 259] | > 100 µM | –
14 | C=CCNC(=S)NN=Cc1ccc(Cl)cc1 [Compound 261] | > 100 µM | –
15 | C=CCNC(=S)NN=CC=Cc1ccc(C)o1 [Compound 263] | > 100 µM | –
16 | S=C(NN=C/C=C/c1ccco1)Nc1ccccc1 [Compound 277] | > 100 µM | –
17 | C=CCNC(=S)NN=Cc1ccc2c(c1)OCO2 [Compound 280] | > 100 µM | –
18 | C=CCNC(=S)NN=Cc1ccc(SC)cc1 [Compound 281] | > 100 µM | –
19 | NC(=S)NN=Cc1ccc([N+](=O)[O-])s1 [Compound 283] | > 100 µM | –
20 | C=CCN(C(C)=O)C1=NN(C(C)=O)C(C=Cc2ccco2)S1 (centres unmarked) [Compound 285] | > 100 µM | –
21 | C=CCN(C(C)=O)C1=NNC(c2cccs2)S1 (centres unmarked) [Compound 286] | > 100 µM | –
22 | C=CCN(C(C)=O)C1=NNC(c2ccc([N+](=O)[O-])s2)S1 (centres unmarked) [Compound 287] | > 100 µM | –
23 | C=CCNC(=S)NN=Cc1ccc(O)cc1 [Compound 291] | > 100 µM | –
24 | C=CCNc1nnc(-c2ccc([N+](=O)[O-])s2)s1 [Compound 292] | > 100 µM | –

Next, values leading:

Row | IC50 | FhTIM inhibition in words | Compound
25 | > 100 µM | – | O=C1CSC(=NN=Cc2ccc([N+](=O)[O-])s2)N1 [Compound 258]
26 | > 100 µM | – | C=CCN1C(=O)CSC1=NN=Cc1ccc(Cl)cc1 [Compound 260]
27 | > 100 µM | – | O=C1CSC(=NN=Cc2ccc([N+](=O)[O-])s2)N1c1ccccc1 [Compound 262]
28 | > 100 µM | – | C=CCN1C(=O)CSC1=NN=CC=Cc1ccco1 [Compound 264]
29 | > 100 µM | – | C=CCn1c(-c2ccc(Cl)cc2)csc1=NN=Cc1ccc(Cl)cc1 [Compound 265]
30 | > 100 µM | – | C=CCn1c(-c2ccc(Cl)cc2)csc1=NN=CC=Cc1ccco1 [Compound 266]
31 | > 100 µM | – | O=[N+]([O-])c1ccc(C=NN=c2[nH]c(-c3ccc(Cl)cc3)cs2)s1 [Compound 267]
32 | > 100 µM | – | O=[N+]([O-])c1ccc(C=NN=c2scc(-c3ccccc3)n2-c2ccccc2)s1 [Compound 268]
33 | > 100 µM | – | C(=NN=c1scc(-c2ccccc2)n1-c1ccccc1)c1ccccc1 [Compound 270]
34 | > 100 µM | – | C=CCn1c(-c2ccccc2)csc1=NN=Cc1cccs1 [Compound 272]
35 | > 100 µM | – | C=CCN1C(=O)CSC1=NN=Cc1cccs1 [Compound 273]
36 | 50 to 100 µM | – | C=CCn1c(C)csc1=NN=Cc1cccs1 [Compound 274]
37 | > 100 µM | – | C=CCn1c(-c2ccccc2)csc1=NN=CC=Cc1ccco1 [Compound 276]
38 | > 100 µM | – | S=C(NN=Cc1ccccc1)Nc1ccccc1 [Compound 278]
39 | > 100 µM | – | S=C(NN=Cc1cccs1)Nc1ccccc1 [Compound 279]
40 | > 100 µM | – | O=C1CSC(=NN=CC=Cc2ccco2)N1c1ccccc1 [Compound 282]
41 | > 100 µM | – | CC(=O)N(C1=NN(C(C)=O)C(c2cccs2)S1)c1ccccc1 (centres unmarked) [Compound 284]
42 | > 100 µM | – | C=CCn1c(-c2csc(=NN=Cc3cccs3)n2CC=C)csc1=NN=Cc1cccs1 [Compound 288]
43 | > 100 µM | – | O=C1CSC(=NN=Cc2cccs2)N1c1ccccc1 [Compound 293]
